Series [1] addresses human NHE-1 (Homo sapiens, UniProt P19634). Briefly: Measurement of human NHE-1 inhibitory activity (NHE-mediated recovery of intracellular pH, BCECF fluorescence).
Procedure: Methodologies for measurement of human NHE-1 activity and inhibitor potency are based on those published by Watson et al., Am. J. Physiol., 24:G229-G238, 1991), where NHE-mediated recovery of intracellular pH is measured following intracellular acidification. Thus, fibroblasts stably expressing human NHE-1 (Counillon, L. et al., Mol. Pharmacol., 44:1041-1045 (1993) are plated onto collagen coated 96 well plates (50,000/well) and grown to confluence in growth media (DMEM high glucose, 10% fetal bovine serum, 50 u/ml penicillin and streptomycin). Confluent plates are incubated for 30 min at 37° C. with the pH sensitive fluorescent probe BCECF (5 μM; Molecular Probes, Eugene, Oreg.). BCECF loaded cells are incubated for 30 min at 37° C. in acid loading media (70 mM choline chloride, 50 mM NHCl4, 5 mM KCl, 1 mM MgCl2, 1.8 mM CaCl2, 5 mM glucose, 10 mM HEPES, pH 7.5), and then placed in a Fluorescent Imaging Plate Reader (Molecular Devices, CA). BCECF fluorescence is monitored using excitation and emission wavelengths of 485 nm and 525 nM, respectively. Intracellular acidification is initiated via rapid replacement of acid loading media with recovery media (120 mM NaCl, 5 mM KCl, 1 mM MgCl2, 1.8 mM CaCl2, 5 mM glucose, 10 mM HEPES, pH 7.5)±test compound, and NHE-mediated recovery of intracellular pH is monitored as the subsequent time-dependent increase BCECF fluorescence.
A short description of series [2]: Identification of metabolite in human plasma samples by LC/MS/MS and LC/NMR. In kind it is in vivo. The note with it: human plasma after intravenous administration of 5-cyclopropyl-1-(quinolin-5-yl)-1H-pyrazole-4-carbonyl]guanidine. An excerpt:
It was identified from samples of human plasma obtained after intravenous administration of 5-cyclopropyl-1-(quinolin-5-yl)-1H-pyrazole-4-carbonyl]guanidine to human subjects. The structure of this compound was independently verified by chemical synthesis. In another aspect of this invention [5-cyclopropyl-1-(2-quinolon-5-yl)-1H-pyrazole-4-carbonyl]guanidine may be prepared by administering [5-cyclopropyl-1-(quinolin-5-yl)-1H-pyrazole-4-carbonyl]guanidine to a human and isolating the desired metabolite from the plasma. Alternatively, the metabolite need not be isolated from the human since it is produced in vivo. […]
An aliquot (100 μL or 50 μL) of the concentrated sample was injected onto an LC/MS/MS instrument equipped with a Zorbax Rx-C8 4.6×150 mm column, analyzed on PE Sciex API 2000 or Finnigan LCQ mass spectrometer and monitored by UV detector at 254 nm. […] Under these LC conditions a metabolite was detected at a retention time of 11.8 minutes ([5-cyclopropyl-1-(quinolin-5-yl)-1H-pyrazole-4-carbonyl]guanidine was detected at 13.7 minutes).
The salts were removed from the above concentrated sample by solid phase extraction. […] 50 μL of this sample was injected onto an LC/NMR instrument equipped with a Zorbax Rx-C8 4.6×150 mm column, analyzed on a Bruker 500 MHz NMR spectrometer and monitored by UV detector at 235 nm. […]

Sequence of human NHE-1 (P19634 whole entry): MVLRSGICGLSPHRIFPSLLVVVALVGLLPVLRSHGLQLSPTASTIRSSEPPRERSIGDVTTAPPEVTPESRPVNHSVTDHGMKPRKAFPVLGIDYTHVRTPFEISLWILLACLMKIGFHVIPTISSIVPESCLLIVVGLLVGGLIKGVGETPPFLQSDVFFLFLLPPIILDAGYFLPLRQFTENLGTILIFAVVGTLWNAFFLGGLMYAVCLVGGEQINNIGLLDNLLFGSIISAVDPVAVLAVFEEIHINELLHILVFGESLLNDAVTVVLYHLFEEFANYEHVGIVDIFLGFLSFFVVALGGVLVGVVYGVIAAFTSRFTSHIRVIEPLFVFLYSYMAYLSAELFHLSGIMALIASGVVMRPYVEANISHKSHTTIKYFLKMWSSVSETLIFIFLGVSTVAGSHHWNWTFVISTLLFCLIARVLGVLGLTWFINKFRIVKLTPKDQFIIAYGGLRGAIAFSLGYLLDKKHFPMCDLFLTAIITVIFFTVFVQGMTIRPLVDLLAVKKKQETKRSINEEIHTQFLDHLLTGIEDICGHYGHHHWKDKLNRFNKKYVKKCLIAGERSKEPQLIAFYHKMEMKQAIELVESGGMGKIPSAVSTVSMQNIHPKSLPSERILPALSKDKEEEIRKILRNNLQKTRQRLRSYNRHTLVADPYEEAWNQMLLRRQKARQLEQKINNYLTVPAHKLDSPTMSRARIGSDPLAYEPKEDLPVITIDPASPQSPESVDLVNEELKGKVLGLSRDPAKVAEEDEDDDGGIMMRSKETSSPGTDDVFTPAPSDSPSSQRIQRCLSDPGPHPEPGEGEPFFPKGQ

Take `N=C(N)NC(=O)c1cnn(-c2cccc3[nH]c(=O)ccc23)c1C1CC1` [Formula I, [5-cyclopropyl-1-(2-quinolon-5-yl)-1H-pyrazole-4-carbonyl]guanidine]: the half-maximal inhibitory concentration (IC50) in series [1] amounted to 0.2 µM. Further, in series [2], the “metabolite identification in human plasma” value is recorded as “human metabolite”.

The record behind these values is patent publication US6852733B2, “Sodium-hydrogen exchanger type 1 inhibitor” (Pfizer Inc., priority 2000, dated 2005).
